Laboratory results taken from US20150126467A1, “USE OF ALGINATE OLIGOMERS TO ENHANCE THE EFFECTS OF ANTIFUNGAL AGENTS” (AlgiIPharma AS, priority 2011, published 2015).
Converted amounts (≈) assume the structure as drawn.

How the values were obtained:
Type in all cases: cell-based
[1] = test system: Candida albicans, CCUG 39343; test: Robotic MIC assay (Example 1); conditions: for Minimum Inhibitory Concentration (MIC): 24 hours; for reduction in MIC values: comparing 0 and 10% G-block
Procedure: (§1) A robotic MIC Assay was performed as follows. OligoG CF-5/20 were dissolved in medium (Mueller-Hinton broth or M19 broth depending on experiment) to 1.25 times of the desired assay concentrations (2, 6 and 10%). The antifungal agents under test were dissolved in medium without OligoG CF-5/20 and in medium with OligoG CF-5/20 at a concentration of 1.25 times the highest desired assay concentrations. For experiments where the effect of adding different concentrations of Na^+ was investigated, NaCl was dissolved in medium to the desired concentrations (10, 30 and 50 mM).
(§2) Two-fold serial dilutions of antifungal agents were made in medium with different concentrations of OligoG CF-5/20, and the solutions were placed in four parallel wells in Nunc 384-well micro plates (30 μl per well in Nunc 242757 microplates). A group of 8 wells with no addition of antifungal agents for each OligoG CF-5/20 concentration was included on each microplate as growth reference. To each well in the 384-well assay plates was added 7.5 μl of medium inoculated with a frozen stock culture of Candida albicans (strain CCUG 39343).
The frozen stock culture was prepared by growing the Candida strain at 34° C. for 48 h on YM-agar. 1-3 colonies from the plates were grown in 6 ml YM-broth at 34° C. for 14 h before freezing in 6% glycerol at −80° C. Each batch of frozen stock culture was then characterized in separate growth experiments using Mueller-Hinton or M19 broth to determine the minimum amount of inoculum giving satisfactory growth after 48 h under the conditions relevant for the MIC assay. This inoculation procedure is used in order to reduce day to day variation in bioassays.
(§3) The micro plates were placed in plastic bags and incubated without shaking at 34° C. The optical density at 600 nm in the microwells was measured after approximately 13, 18, 24 and 34 hours of incubation, and the relative growth yield in each well was calculated based on the growth in the reference groups.

Candida albicans = test: Robotic MIC assay with asthma/COPD medicaments (Example 5); conditions: Mueller-Hinton broth; for MIC values: 24 hours
Procedure: as §1, §2, §3
The robotic assay described in Example 1 was employed in this Example. […] The concentration utilized for the different components were based on information from Manocha et al. (2006).
In this assay only Mueller-Hinton broth was used since this is the medium specified for standardized MIC assays (Jorgensen et al., 1999).

[2] = test system: various Candida species and strains; test: Robotic MIC assay, summary over all strains (Example 2); conditions: all species and strains tested
Procedure: The robotic assay described in Example 1 was employed in this Example. Strains were grown in Mueller-Hinton broth (LAB114 from Lab M Limited) and MIC values (μg ml-1) were determined for each antifungal after incubation for 48 h in the presence of 0, 2, 6 and 10% OligoG CF-5/20 G-fragments. […] OligoG CF-5/20 G-fragments were provided by AlgiPharma AS, Norway.
Candida strains used were as follows: • C. albicans CCUG 39343 (strain from culture collection) • C. parapsillosis ATCC 22019T (strain from culture collection) • C. krusei 141/03 (candidosis) • C. krusei 249/03(2) (ulceration) • C. lusitaniae 994/01(2) (candidosis) • C. tropicalis 12 (vaginal) • C. tropicalis 75 (vaginal) • C. tropicalis 519468 (urinary) • C. tropicalis 544123 (urinary) • C. tropicalis 250/03 (candidosis) • C. tropicalis AG1 (oral) • C. tropicalis T2.2 (oral)

`C[C@@H]1[C@H](O)[C@@H](C)/C=C/C=C/CC/C=C/C=C/C=C/C=C/C(O[C@H]2O[C@H](C)[C@@H](O)[C@H](N)[C@@H]2O)CC2O[C@](O)(CC(O)C(O)CCC(O)CC(O)CC(O)CC(=O)O[C@H]1C)CC(O)C2C(=O)O` (stereo partly drawn) [Nystatin, nystatin] was tested, and the “Minimum Inhibitory Concentration (MIC)” value ([1]; M19, NaCl 0 mM) was 6.4 µg/mL, the “Minimum Inhibitory Concentration (MIC)” value ([1]; M19, NaCl 30 mM) was 3.2 µg/mL and the “Minimum Inhibitory Concentration (MIC)” value ([1]; M19, NaCl 50 mM) was 1.6 µg/mL. For the same molecule, the “Minimum Inhibitory Concentration (MIC)” value ([1]; M19, OligoG CF 5/20 0%) was 6.4 µg/mL, the “Minimum Inhibitory Concentration (MIC)” value ([1]; M19, OligoG CF 5/20 2%) was 1.6 µg/mL and the “Minimum Inhibitory Concentration (MIC)” value ([1]; M19, OligoG CF 5/20 6%) was 0.8 µg/mL. For the same molecule, the “Minimum Inhibitory Concentration (MIC)” value ([1]; M19, OligoG CF 5/20 10%) was 0.4 µg/mL, the “reduction in MIC values” ([1]; M19) was 16 × and the “Minimum Inhibitory Concentration (MIC)” value ([1]; Mueller-Hinton, NaCl 0 mM) was 6.4 µg/mL. The “Minimum Inhibitory Concentration (MIC)” value ([1]; Mueller-Hinton, NaCl 10 mM) was 6.4 µg/mL, the “Minimum Inhibitory Concentration (MIC)” value ([1]; Mueller-Hinton, NaCl 30 mM) was 6.4 µg/mL and the “Minimum Inhibitory Concentration (MIC)” value ([1]; Mueller-Hinton, NaCl 50 mM) was 6.4 µg/mL. The “Minimum Inhibitory Concentration (MIC)” value ([1]; Mueller-Hinton, OligoG CF 5/20 0%) was 3.2 µg/mL, the “Minimum Inhibitory Concentration (MIC)” value ([1]; Mueller-Hinton, OligoG CF 5/20 2%) was 3.2 µg/mL and the “Minimum Inhibitory Concentration (MIC)” value ([1]; Mueller-Hinton, OligoG CF 5/20 6%) was 0.8 µg/mL. The “Minimum Inhibitory Concentration (MIC)” value ([1]; Mueller-Hinton, OligoG CF 5/20 10%) was 0.4 µg/mL, the “reduction in MIC values” ([1]; Mueller-Hinton) was 8 × and the “effect of addition of OligoG CF-5/20 on MIC values” ([1]; both media tested (M19, Mueller-Hinton)) was “reduction in MIC values”. The “reduction in MIC values” (Candida albicans; addition of 10% OligoG CF-5/20 compared to without OligoG CF-5/20) was 4 ×, the MIC values (Candida albicans; no medicament added, G-block 0%) was 2 µg/mL (≈ 2.16 µM) and the MIC values (Candida albicans; no medicament added, G-block 2%) was 2 µg/mL (≈ 2.16 µM). For the same molecule, the MIC values (Candida albicans; no medicament added, G-block 6%) was 1 µg/mL (≈ 1.08 µM), the MIC values (Candida albicans; no medicament added, G-block 10%) was 0.5 µg/mL (≈ 0.54 µM) and the MIC values (Candida albicans; with Budesonide 0.01 mM, G-block 0%) was 4 µg/mL (≈ 4.32 µM). For the same molecule, the MIC values (Candida albicans; with Budesonide 0.01 mM, G-block 2%) was 4 µg/mL (≈ 4.32 µM), the MIC values (Candida albicans; with Budesonide 0.01 mM, G-block 6%) was 2 µg/mL (≈ 2.16 µM) and the MIC values (Candida albicans; with Budesonide 0.01 mM, G-block 10%) was 1 µg/mL (≈ 1.08 µM). For the same molecule, the MIC values (Candida albicans; with Formoterol 0.5 mM (2% DMSO), G-block 0%) was 2 µg/mL (≈ 2.16 µM), the MIC values (Candida albicans; with Formoterol 0.5 mM (2% DMSO), G-block 2%) was 2 µg/mL (≈ 2.16 µM) and the MIC values (Candida albicans; with Formoterol 0.5 mM (2% DMSO), G-block 6%) was 1 µg/mL (≈ 1.08 µM). It also gave an MIC values (Candida albicans; with Formoterol 0.5 mM (2% DMSO), G-block 10%) of 0.5 µg/mL (≈ 0.54 µM), an MIC values (Candida albicans; with Ipratropium bromide 0.01 mM, G-block 0%) of 4 µg/mL (≈ 4.32 µM) and an MIC values (Candida albicans; with Ipratropium bromide 0.01 mM, G-block 2%) of 2 µg/mL (≈ 2.16 µM). The MIC values (Candida albicans; with Ipratropium bromide 0.01 mM, G-block 6%) was 1 µg/mL (≈ 1.08 µM), the MIC values (Candida albicans; with Ipratropium bromide 0.01 mM, G-block 10%) was 0.25 µg/mL (≈ 0.27 µM) and the MIC values (Candida albicans; with Ipratropium bromide 1 mM, G-block 0%) was 4 µg/mL (≈ 4.32 µM). For the same molecule, the MIC values (Candida albicans; with Ipratropium bromide 1 mM, G-block 2%) was 2 µg/mL (≈ 2.16 µM), the MIC values (Candida albicans; with Ipratropium bromide 1 mM, G-block 6%) was 0.5 µg/mL (≈ 0.54 µM) and the MIC values (Candida albicans; with Ipratropium bromide 1 mM, G-block 10%) was 0.25 µg/mL (≈ 0.27 µM). The MIC values (Candida albicans; with Salbutamol 0.01 mM, G-block 0%) was 4 µg/mL (≈ 4.32 µM), the MIC values (Candida albicans; with Salbutamol 0.01 mM, G-block 2%) was 2 µg/mL (≈ 2.16 µM) and the MIC values (Candida albicans; with Salbutamol 0.01 mM, G-block 6%) was 1 µg/mL (≈ 1.08 µM). It also gave an MIC values (Candida albicans; with Salbutamol 0.01 mM, G-block 10%) of 0.25 µg/mL (≈ 0.27 µM), an MIC values (Candida albicans; with Salbutamol 1 mM, G-block 0%) of 2 µg/mL (≈ 2.16 µM) and an MIC values (Candida albicans; with Salbutamol 1 mM, G-block 2%) of 2 µg/mL (≈ 2.16 µM). The MIC values (Candida albicans; with Salbutamol 1 mM, G-block 6%) was 1 µg/mL (≈ 1.08 µM), the MIC values (Candida albicans; with Salbutamol 1 mM, G-block 10%) was 0.25 µg/mL (≈ 0.27 µM) and the “effect of addition of OligoG CF-5/20 on MIC values” [2] was “reduced”.
